The numbers were not newly measured in patent US20050266098A1, “Composition for treatment of a hydrofluoric acid burn” (priority 2004, published 2005), which cites them from elsewhere.

In one data set the test system is hydrofluoric acid injury. The conditions noted are these: soaks as source of calcium ions.
The conditions of data set [1]: 18° C.

For the molecule `CC(=O)[O-].CC(=O)[O-].[Ca+2]` [Calcium acetate], the “epidermal response resulting from the treatment” value in the data set with hydrofluoric acid injury is reported as “negative epidermal response”.
The pKa is the pH at which an ionisable group is half protonated. On to `CC(=O)CCC(=O)O` [Levulinic acid], for which the pKa in data set [1] is listed as 4.64. Also, in data set [1] (98% aqueous solution), the pH is reported as 6.2.
